# Laboratory results reported in ChEMBL document CHEMBL1201862, “PubChem BioAssay data set” (2004).
# Activity calls are given as the source filed them.
# Experiments:
# Major prion protein = Major prion protein (Homo sapiens, UniProt P04156); type: functional, cell-based
# HEK293 [1] = experiment: cells; type: functional, cell-based; conditions: Homo sapiens
# HEK293 [2] = experiment: cells; type: functional, cell-based; conditions: Homo sapiens; remark: listed apart in the source
# [3] = target: Nucleotide-binding oligomerization domain-containing protein 2 (Homo sapiens, UniProt Q9HC29); experiment: inhibition of NOD2-driven NF-kB reporter – cell-based, luminescence, uHTS, HEK293 (AID 1566); type: functional
# HEK293 [4] = experiment: NOD2 signaling inhibitors in MDP-stimulated cells, cell-based, uHTS, luminescence (AID 2001); type: functional; conditions: Homo sapiens
# HEK293 [5] = experiment: inhibition of NOD1-driven NF-kB reporter – cell-based, luminescence, uHTS, primary screen (AID 1578); type: functional; conditions: Homo sapiens
# HEK293 [6] = experiment: cells; type: functional, cell-based; conditions: Homo sapiens; remark: listed apart in the source
# Mu-type opioid receptor = Mu-type opioid receptor (Homo sapiens, UniProt P35372); experiment: SAR Analysis of Antagonists of the MOR Receptor using an Image-Based Assay - Set 3. [Related pubchem assays (depositor defined):AID1777, AID1785, AID1786, AID1966, AID2133, AID2136, AID2284, AID2285, AID2420]; type: functional
# [7] = target: T1, Kappa-type opioid receptor (Homo sapiens, UniProt P41145); experiment: SAR analysis of Antagonists of the Kappa Opioid Receptor (KOR) using an Image-Based Assay - Set 3. [Related pubchem assays (depositor defined):AID1777, AID1785]; type: functional
# [8] = target: Delta-type opioid receptor (Homo sapiens, UniProt P41143); experiment: SAR Analysis of Antagonists of the DOR Receptor using an Image-Based Assay - Set 3. [Related pubchem assays (depositor defined):AID1777, AID1785]; type: functional;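 note: U2OS cells expressing DOR1 and beta-arrestin GFP stimulated with 100 nM SNC80; imaging of GFP-tagged beta-arrestin moving into spots after receptor activation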
# [9] = target: T1, Kappa-type opioid receptor; experiment: SAR analysis of small molecule antagonists of the kappa opioid receptor via a luminescent beta-arrestin assay - Set 3. [Related pubchem assays (depositor defined):AID1777, AID1778, AID1785, AID1786, AID1966, AID2133, AID2136, AID2285, AID2495]; type: functional
# Hexokinase = Hexokinase (Trypanosoma brucei, UniProt Q38C41); experiment: Confirmation assay for inhibitors of Trypanosoma brucei hexokinase 1-Analogue-first series. [Related pubchem assays (depositor defined):AID1430, AID1632, AID2516, AID2560, AID2579, AID2600, AID449725, AID492951]; type: functional
# Coagulation factor XII = target: T2, Coagulation factor XII (Homo sapiens, UniProt P00748); experiment: activated coagulation factor XII inhibitor potency, concentration-effect curve, cell-free (AID 716); type: functional
# T2 sequence (P00748 whole entry): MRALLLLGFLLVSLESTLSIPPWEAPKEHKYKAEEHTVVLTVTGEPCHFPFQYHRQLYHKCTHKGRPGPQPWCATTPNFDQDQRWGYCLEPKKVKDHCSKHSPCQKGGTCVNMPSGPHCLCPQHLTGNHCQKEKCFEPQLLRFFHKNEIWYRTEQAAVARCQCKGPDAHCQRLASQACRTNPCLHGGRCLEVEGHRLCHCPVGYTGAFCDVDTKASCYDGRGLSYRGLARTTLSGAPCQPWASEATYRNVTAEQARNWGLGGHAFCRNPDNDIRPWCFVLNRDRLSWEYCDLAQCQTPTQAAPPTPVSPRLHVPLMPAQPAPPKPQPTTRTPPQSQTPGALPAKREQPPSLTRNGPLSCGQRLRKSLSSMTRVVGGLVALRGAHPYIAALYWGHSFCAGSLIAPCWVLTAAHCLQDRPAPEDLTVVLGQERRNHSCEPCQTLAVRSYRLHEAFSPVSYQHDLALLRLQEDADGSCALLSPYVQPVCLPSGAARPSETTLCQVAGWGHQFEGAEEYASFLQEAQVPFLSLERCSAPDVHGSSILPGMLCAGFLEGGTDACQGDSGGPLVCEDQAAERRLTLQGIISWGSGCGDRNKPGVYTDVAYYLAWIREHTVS
smiles,measurement,setting,value
Cc1nc2c(Br)cc(Br)cc2cc1O,IC50,Major prion protein,1.36 µM (active)
same,IC50,HEK293 [1],6.3 µM (active)
same,IC50,HEK293 [2],> 20 µM (inactive)
same,EC50,[3],13.2 µM (active)
same,IC50,cells,> 138 µM (inactive)
same,IC50,HEK293 [4],6.68 µM (active)
same,EC50,HEK293 [5],11.4 µM (active)
same,IC50,HEK293 [6],> 20 µM (inactive)
Cc1cccc(S(=O)(=O)NCc2ccc(C(=O)NCCN(Cc3ccccc3)Cc3ccccc3)cc2)c1,IC50,Mu-type opioid receptor,> 32 µM (inactive)
same,IC50,[7],> 32 µM (inactive)
same,IC50,[8],> 32 µM (inactive)
same,IC50,[9],> 20 µM (inactive)
COc1ccccc1-n1sc2ccccc2c1=O,IC50,Hexokinase,7.9 µM (active)
CC(C)CCn1c(=S)[nH]c2ncccc2c1=O,IC50,Coagulation factor XII,> 50 µM (inactive)
